Tests used:
[1] = Metabolite profiling of MASM in rats by UHPLC-QQQ-MS/MS; format: in vivo, Sprague-Dawley rats; details: rat, MASM i.p. 80 mg/kg, i.g. 60 mg/kg
Procedure: The identification of the in vivo metabolites of MASM was conducted using UHPLC-QQQ-MS/MS combined with standard references and deuterium-labeled MASM. The findings are presented in Table 2, while the proposed primary metabolic pathway of MASM in rats is depicted in Figure 4. To provide a comprehensive understanding of the metabolite identification process, three representative metabolites of MASM are presented, with their identification relying on primary and secondary mass spectrometry data, standard references, and deuterium-labeled MASM. The remaining metabolites are detailed in Supplementary File S4. For instance, the identification of the metabolite, M1, as a demethylation product of MASM was accomplished through the utilization of MS, MS/MS data, and the standard reference. […] Moreover, the identification of M1 as the demethylation metabolite of MASM was accomplished using the standard reference synthesized in our laboratory. […] Secondly, the metabolite, M2, of MASM was identified as the dehydrogenation product of MASM through the utilization of MS and MS/MS data. […] Consequently, M2 was identified as a dehydrogenation metabolite of M1. Thirdly, through the utilization of MS, MS/MS data, and deuterium-labeled MASM, the metabolite, M8, of MASM was determined to be a dehydrogenation product of MASM. […] The major MS/MS fragment ions of M8 were found at m/z 111.92, 178.77, 150.16, and 135.85, which aligned with the characteristic cleavage pattern of matrine. Additionally, our lab synthesized deuterium-labeled MASM to further support our proposed structure. […] Consequently, M8 was identified as a dehydrogenation metabolite of MASM. The EIC, MS/MS spectrum of M8 and deuterium-labeled MASM are all depicted in Figure 5C.
UHPLC analysis was performed using a Thermo Accela AS system, employing an ACQUITY UPLC®BEH C18 (Waters Corporation, Wexfords, Ireland) (1.7 µm, 2.1 × 100 mm) column and a binary solvent system consisting of water containing 0.1% formic acid as mobile phase A and acetonitrile as mobile phase B. For pharmacokinetic evaluation, the gradient elution was set as follows: 97% A from 0 to 2 min, 97–70% A from 2 to 3 min, 70–20% A from 3 to 3.5 min, 20% A from 3.5 to 3.6 min, 20–97% A from 3.6 to 3.7 min, and 97% A from 3.7 to 5 min. For the metabolic test, the gradient elution in full scan mode was set as follows: 97% A from 0 to 2 min, 97–70% A from 2 to 4 min, 70–20% A from 4 to 6 min, 20% A from 6 to 7 min, 20–97% A from 7 to 8 min, and 97% A from 8 to 10 min. The flow rate was 0.2 mL/min, with a temperature of 40 °C maintained and an injection volume of 5 μL. The QQQ-MS/MS analysis was conducted using a Thermo TSQ QUANTUM ACCESS MAX system equipped with an electrospray ionization (ESI) source. The spray voltages were set at 4.0 kV and 2.5 kV for positive and negative ion modes, respectively; capillary and vaporizer temperatures were 320 °C and 350 °C, respectively; sheath and aux gas pressures were 35 and 10 psi, respectively.
Seventy Sprague-Dawley rats were fasted overnight before dosing, with free access to water. Subsequently, the rats were randomly and equally divided into 7 groups: the control groups received 3 different routes of administration: intravenous, intraperitoneal, and intragastric (NS, saline 1 mL/100 g); MASM intraperitoneal group (A, i.p. 80 mg/kg), MASM intragastrical group (B, i.g. 60 mg/kg), MASM intravenous group (C, i.v. 15 mg/kg), and DMASM intragastrical group (D, i.g. 60 mg/kg). It is important to note that the recommended clinical dose of matrine injection is 0.15 g, which is equivalent to a dosage of 15 mg/kg in rats. MASM was administered via tail vein injection at a dosage of 1 mL/100 g for intravenous dosing, while for intraperitoneal dosing, MASM was injected at the lower-right side of the abdomen of rats. […]

[2] = cited from earlier work
mice = details: cited from earlier work

Row | Structure (SMILES) | Method of Administration after which the metabolite of MASM was found [1] | other results
1 | O=C1C=CC[C@@H]2[C@H]3CCC[N+]4([O-])CCC[C@@H](CN12)[C@@H]34 (stereo partly shown) [M4, oxysophocarpine] | i.p. i.g. | 
2 | O=C1CCC[C@@H]2[C@H]3CCC[N+]4([O-])CCC[C@@H](CN12)[C@@H]34 (stereo partly shown) [M5, oxymatrine] | i.p. i.g. | 
3 | O=C1CCC[C@@H]2[C@H]3CCCN4CCC[C@@H](CN12)[C@@H]34 [matrine] |  | time of peak plasma concentration of matrine ([2]; after oral administration, ref Zhang et al. 11): 2.1 h; bioavailability of matrine ([2]; reported value, ref Yang et al. 12): 18.5%; LD50 of matrine (mice): 83.21 mg/kg

Further lines, with some results ahead:

Row | Method of Administration after which the metabolite of MASM was found [1] | Structure (SMILES) | other results
4 | i.p. i.g. | CNC1CC(S)N2CC3CCCN4CCCC(C34)C2C1 (stereo not shown) [M6] | 
5 | i.p. i.g. | NC1CC(=S)N2CC3CCCN4CCCC(C34)C2C1 (stereo not shown) [M7] | 
6 | i.g. | CN[C@@H]1CC(=S)N2CC3CCCN4C=CCC(C34)C2C1 (stereo partly shown) [M8] | 
7 | i.g. | OCNC1CC(=S)N2CC3CCCN4CCCC(C34)C2C1 (stereo not shown) [M9] | 
8 | i.g. | O=CNC1CC(=S)N2CC3CCCN4CCCC(C34)C2C1 (stereo not shown) [M10] | 

Reference: publication PMC10820135, “Pharmacokinetic, Tissue Distribution, Metabolite, and Toxicity Evaluation of the Matrine Derivative, (6aS, 10S, 11aR, 11bR, 11cS)-10-Methylaminododecahydro-3a, 7a-Diaza-benzo (de) Anthracene-8-thione” (Molecules, 2024)
